Assay results as given in patent US5824679A, “Phosphanoxides--preparation and use” (Boehringer Mannheim GmbH, priority 1994, dated 1998).

Key:
horse thrombin = assay: Thrombin time (clotting of human citrate plasma on addition of thrombin reagent, ball coagulometer); assay type: biochemical, human plasma; horse thrombin; details: 37° C., difference to control (ca. 24 sec); for TT0.5 (thrombin time, difference to the control): 0.5 μM in human plasma; for TT5 (thrombin time, difference to the control): 5 μM in human plasma
Description: A conventional test in clinical coagulation diagnostics is the thrombin time. This parameter measures the action of thrombin on fibrinogen and the formation of clots. Inhibitors of thrombin result in an extended thrombin time.
In order to obtain plasma 9 parts of fresh blood from healthy donors was mixed with one part of sodium citrate solution (0.11 mol/l) and it was centrifuged for 10 minutes at room temperature at ca. 3000 r.p.m. The plasma was removed by pipette and can be stored at room temperature for ca. 8 hours.
200 μl citrate plasma was incubated for 2 minutes at 37° C. in a ball coagulometer (KC10 from the Amelung Company). 10 μl dimethylsulfoxide (DMSO) or a solution of the active substance in DMSO was added to 190 μl pre-heated thrombin reagent (Boehringer Mannheim GmbH; contains ca. 3 U/ml horse thrombin and 0.0125M Ca^++). On addition of 200 μl of this solution to the plasma a stopwatch was started and the time at which coagulation starts was determined.
The measured thrombin times in seconds are given in the following table as a difference to the control. The concentrations of the active substances in human plasma were 5 μM (TT5) and 0.5 μM (TT0.5).

human α thrombin = target: T1, human α thrombin (Homo sapiens, UniProt P00734); assay: Thrombin inhibition, kinetic measurement with substrate H-(D)-Phe-Pro-Arg-pNA; assay type: biochemical; details: 0.1M phosphate buffer, 0.2M sodium chloride, 0.5% polyethylene glycol 6000, pH=7.5, 25° C.
T1 construct: human α thrombin; purchased Sigma
Description: The kinetic measurements were carried out in 0.1M phosphate buffer that contained 0.2M sodium chloride and 0.5% polyethylene glycol 6000 at a pH=7.5 and 25° C. with the substrate H-(D)-Phe-Pro-Arg-pNA; Kabi and human α thrombin (Sigma, specific activity=2150 NIH-units/mg) in polystyrene semi-microcuvettes in a total volume of 1 ml.
In a preliminary test each active substance was determined as to whether it inhibits thrombin rapidly or slowly. For this the reaction was firstly started by adding 0.03 NIH units thrombin to a 100 μM solution of the substrate and the active substance. In a second experiment, substrate was added to a solution of thrombin and the active substance which had been incubated for 5 minutes. The increase in the concentration of p-nitroaniline with time was monitored spectroscopically (UV-VIS spectrophotometer Lambda-2 from the Perkin-Elmer Company) at 405 nm for 12 min.
Since the measured curves obtained in both experiments were linear and parallel, the active substances of the following table are rapid thrombin inhibitors.
The inhibition constants Ki were then determined as follows. The substrate was used at concentrations of 100 μM, 50 μM, 30 μM, 20 μM and at each substrate concentration a measurement was carried out without inhibitor and three measurements were carried out in the presence of various concentrations of the inhibitors listed in the following table. The reactions were started by adding thrombin. The increase in absorbance at 405 nm due to the formation of p-nitroaniline was monitored over a time period of 12 minutes. Measurement points (time versus absorbance) were transferred to a PC at intervals of 20 seconds. The rates VO (change in absorbance per second; measurements without inhibitor) and Vi (measurements with inhibitor) were determined by linear regression. Only that part of the measurement was used in which the substrate concentration had decreased by less than 15%. Km ' and Vmax were determined from a measurement series (constant inhibitor concentration, variable substrate concentrations) by a non-linear fit to the equation [formula]
Finally Ki was calculated from the entire series of measurements by a non-linear fit to the equation [formula]
The Michaelis constant Km was 3.8±2 μm in all measurements.
The inhibition constants Ki of the active substances are stated in the following table in units of μM.

SMILES	Ki (human α thrombin)	TT0.5 (thrombin time, difference to the control) (horse thrombin)	TT5 (thrombin time, difference to the control) (horse thrombin)
Cc1cc(OCCNc2ccncc2)cc(N(CP(C)(C)=O)S(=O)(=O)c2ccccc2)c1 [Example 1, N-(Dimethyloxophosphinylmethyl)-N-{3-methyl-5-[2-(pyridin-4-ylamino)-ethoxyl]-phenyl}-benzene sulfonamide]	100 nM	33 s	175 s
CCCCOc1ccccc1S(=O)(=O)N(CP(C)(C)=O)c1cc(C)cc(OCCNc2ccncc2)c1 [Example 3, N-(Dimethyloxophosphinylmethyl)-N-{3-methyl-5-[2-(pyridin-4-ylamino)-ethoxyl]-phenyl}-2-butoxy-benzene-sulfonamide]	4 nM	50 s	300 s
CCCCCCOc1ccccc1S(=O)(=O)N(CP(C)(C)=O)c1cc(C)cc(OCCNc2ccncc2)c1 [Example 4, N-(Dimethyloxophosphinylmethyl)-N-{3-methyl-5-[2-(pyridin-4-ylamino)-ethoxyl]-phenyl}-2-hexyloxy-benzene-sulfonamide]	12 nM	11 s	113 s

Now from value to compound, other results behind:

Ki (human α thrombin)	SMILES	TT0.5 (thrombin time, difference to the control) (horse thrombin)	TT5 (thrombin time, difference to the control) (horse thrombin)
8 nM	COc1ccccc1S(=O)(=O)N(CP(C)(C)=O)c1cc(C)cc(OCCNc2ccncc2)c1 [Example 2, N-(Dimethyloxophosphinvlmethyl)-N-{3-methyl-5-[2-(pyridin-4-ylamino)-ethoxyl]-phenyl}-2-methoxy-benzene-sulfonamide]	115 s	300 s
35 nM	Cc1cc(OCCNc2ccnnc2)cc(N(CP(C)(C)=O)S(=O)(=O)c2ccccc2OC(C)C)c1 [Example 8]	47 s	180 s
28 nM	CCCOc1ccccc1S(=O)(=O)N(CP(C)(C)=O)c1cc(C)cc(OCCNc2ccnnc2)c1 [Example 6]	18 s	122 s
60 nM	CCOc1ccccc1S(=O)(=O)N(CP(C)(C)=O)c1cc(C)cc(OCCNc2ccnnc2)c1 [Example 7]	14 s	109 s
